We go through 25 molecules from patent US11780839B2, “Compounds for treating Huntington's disease” (PTC THERAPEUTICS, INC., priority 2018, dated 2023).

In the test the test system is Endogenous Huntingtin Protein. In words: Endogenous Huntingtin Protein Assay (ELISA-based Meso Scale Discovery electrochemiluminescence). Format: cell-based. As to conditions: MSD electrochemiluminescence, Table 1. In a few lines: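 Sandwich MSD electrochemiluminescence immunoassay. Capture used MW1 (expanded polyglutamine) or MAB2166 antibody coated at 1 μg/mL overnight at 4 °C. Samples were bound overnight at 4 °C, then a rabbit monoclonal detection antibody and SULFO-TAG anti-rabbit, each at 0.25 μg/mL, were applied for 1 h at room temperature.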
As for `CC1(C)C[C@@H](Nc2ncc(-c3ccc(-c4c[nH]nc4F)cc3O)nn2)[C@@H](F)C(C)(C)N1` [Cpd 189, 5-(3-fluoro-1H-pyrazol-4-yl)-2-(3-{[(3R,4R)-3-fluoro-2,2,6,6-tetramethylpiperidin-4-yl]amino}-1,2,4-triazin-6-yl)phenol], the concentration for half-maximal inhibition (IC50) was at most 100 nM.
`Cn1cc(-c2ccc(-c3cnc(NC4CC(C)(C)NC(C)(C)C4)nn3)c(O)c2)cn1` [Cpd 199, 5-(1-methyl-1H-pyrazol-4-yl)-2-{3-[(2,2,6,6-tetramethylpiperidin-4-yl)amino]-1,2,4-triazin-6-yl}phenol] registered an IC50 of at most 100 nM.
The figure for `CN(c1ncc(-c2ccc(-n3nccn3)cc2O)nn1)[C@H]1C[C@]2(C)CC[C@](C)(C1)N2` [Cpd 417] is at most 100 nM; for `CN(c1ncc(-c2ccc(-c3ccc4[nH]ncc4n3)cc2O)nn1)C1CC(C)(C)NC(C)(C)C1` [Cpd 136, 2-{3-[methyl(2,2,6,6-tetramethylpiperidin-4-yl)amino]-1,2,4-triazin-6-yl}-5-(1H-pyrazolo[4,3-b]pyridin-5-yl)phenol] it is at most 100 nM; for `CN(c1ncc(-c2ccc(-c3cc4nc[nH]c4c(F)c3F)cc2O)nn1)C1CC(C)(C)NC(C)(C)C1` [Cpd 301, 5-(6,7-difluoro-1H-benzimidazol-5-yl)-2-{3-[methyl(2,2,6,6-tetramethylpiperidin-4-yl)amino]-1,2,4-triazin-6-yl}phenol] it is at most 100 nM.
The figure for `Oc1cc(-c2cn[nH]c2)ccc1-c1cnc(N2CCC(NC34CC(C3)C4)C2)nn1` (stereo not drawn) [Cpd 349, 2-(3-{3-[(bicyclo[1.1.1]pentan-1-yl)amino]pyrrolidin-l-yl}-1,2,4-triazin-6-yl)-5-(1H-pyrazol-4-yl)phenol] is 100 to 500 nM.
The figure for `Oc1cc(-c2cn[nH]c2)ccc1-c1cnc(N2CC3(CCNCC3)C2)nn1` [Cpd 96, 2-[3-(2,7-diazaspiro[3.5]nonan-2-yl)-1,2,4-triazin-6-yl]-5-(1H-pyrazol-4-yl)phenol] is at most 100 nM.
Consider `Cc1n[nH]cc1-c1ccc(-c2cnc(N(C)C3CC(C)(C)NC(C)(C)C3)nn2)c(O)c1` [Cpd 6, 5-(3-methyl-1H-pyrazol-4-yl)-2-{3-[methyl(2,2,6,6-tetramethylpiperidin-4-yl)amino]-1,2,4-triazin-6-yl}phenol], for which the IC50 was at most 100 nM.
The figure for `Cc1cn2nc(-c3ccc(-c4cnc(N(C)C5CC(C)(C)NC(C)(C)C5)nn4)c(O)c3)cc(C)c2n1` [Cpd 141, 5-(2,8-dimethylimidazo[1,2-b]pyridazin-6-yl)-2-{3-[methyl(2,2,6,6-tetramethylpiperidin-4-yl)amino]-1,2,4-triazin-6-yl}phenol] is at most 100 nM; for `CN(c1ncc(-c2ccc(-c3cnn(C)c(=O)c3)cc2O)nn1)C1CC(C)(C)NC(C)(C)C1` [Cpd 147, 5-(3-hydroxy-4-{3-[methyl(2,2,6,6-tetramethylpiperidin-4-yl)amino]-1,2,4-triazin-6-yl}phenyl)-2-methylpyridazin-3(2H)-one] it is at most 100 nM.
The figure for `CN1CCC2(CC1)CN(c1ncc(-c3ccc(-c4ncco4)cc3O)nn1)C2` [Cpd 252, 2-[3-(7-methyl-2,7-diazaspiro[3.5]nonan-2-yl)-1,2,4-triazin-6-yl]-5-(1,3-oxazol-2-yl)phenol] is over 500 nM.
The figure for `Oc1cc(-c2cn[nH]c2)ccc1-c1cnc(N2CCC(CNCc3ccccn3)C2)nn1` (stereo not shown) [Cpd 388, 5-(1H-pyrazol-4-yl)-2-{3-[-({[(pyridin-2-yl)methyl]amino}methyl)pyrrolidin-1-yl]-1,2,4-triazin-6-yl}phenol] is at most 100 nM.
Regarding `Oc1cc(-c2c[nH]nc2F)ccc1-c1cnc(N2CC3(CCNCC3)C2)nn1` [Cpd 151, 2-[3-(2,7-diazaspiro[3.5]nonan-2-yl)-1,2,4-triazin-6-yl]-5-(3-fluoro-1H-pyrazol-4-yl)phenol], the IC50 is at most 100 nM.
`CN(c1ncc(-c2ccc(-n3cnc(C#N)c3)cc2O)nn1)C1CC(C)(C)NC(C)(C)C1` [Cpd 139, 1-(3-hydroxy-4-{3-[methyl(2,2,6,6-tetramethylpiperidin-4-yl)amino]-1,2,4-triazin-6-yl}phenyl)-1H-imidazole-4-carbonitrile] gave an IC50 of 100 to 500 nM.
The figure for `CC(C)(C)NC1CCN(c2ncc(-c3ccc(-c4c[nH]nc4C#N)cc3O)nn2)C1` (stereo not drawn) [Cpd 366, 4-(4-{3-[3-(tert-butylamino)pyrrolidin-l-yl]-1,2,4-triazin-6-yl]-3-hydroxyphenyl)-1H-pyrazole-3-carbonitrile] is at most 100 nM.
The figure for `CNC1CCN(c2ncc(-c3ccc(-c4cnn(C)c4)cc3O)nn2)C1` (stereo not drawn) [Cpd 205, 2-{3-[3-(methylamino)pyrrolidin-l-yl]-1,2,4-triazin-6-yl}-5-(1-methyl-1H-pyrazol-4-yl)phenol] is at most 100 nM; for `CC1(C)CC(Oc2cnc(-c3ccc(-c4cn[nH]c4)cc3O)nn2)CC(C)(C)N1` [Cpd 419, 5-(1H-pyrazol-4-yl)-2-{6-[(2,2,6,6-tetramethylpiperidin-4-yl)oxy]-1,2,4-triazin-3-yl}phenol] it is at most 100 nM.
The figure for `CN(c1ncc(-c2ccc(-c3ncco3)cc2O)nn1)C1CC(C)(C)NC(C)(C)C1` [Cpd 7, 2-{3-[methyl(2,2,6,6-tetramethylpiperidin-4-yl)amino]-1,2,4-triazin-6-yl}-5-(1,3-oxazol-2-yl)phenol] is at most 100 nM.
Molecule `CN(c1ncc(-c2ccc(-c3ccc4c(c3)nnn4C)cc2O)nn1)C1CC(C)(C)NC(C)(C)C1` [Cpd 200, 5-(1-methyl-1H-benzotriazol-5-yl)-2-{3-[methyl(2,2,6,6-tetramethylpiperidin-4-yl)amino]-1,2,4-triazin-6-yl}phenol] showed a half-maximal inhibitory concentration (IC50) of at most 100 nM.
The figure for `Oc1cc(-c2cn[nH]c2)ccc1-c1cnc(N2CC[C@H](CNC3CCOCC3)C2)nn1` [Cpd 398, 2-{3-[(3R)-3-{[(oxan-4-yl)amino]methyl}pyrrolidin-1-yl]-1,2,4-triazin-6-yl}-5-(1H-pyrazol-4-yl)phenol] is at most 100 nM; for `[2H]C([2H])([2H])n1cc(-c2ccc(-c3cnc(N(C)C4CC(C)(C)NC(C)(C)C4)nn3)c(O)c2)cn1` [Cpd 14, 5-[1-(^2H3)methyl-1H-pyrazol-4-yl]-2-{3-[methyl(2,2,6,6-tetramethylpiperidin-4-yl)amino]-1,2,4-triazin-6-yl}phenol] it is at most 100 nM.
The figure for `CN(c1ncc(-c2ccc(-c3c[nH]nn3)cc2O)nn1)C1CC(C)(C)NC(C)(C)C1` [Cpd 4, 2-{3-[methyl(2,2,6,6-tetramethylpiperidin-4-yl)amino]-1,2,4-triazin-6-yl}-5-(1H-1,2,3-triazol-4-yl)phenol] is at most 100 nM.
Molecule `Cc1cc(-c2ccc(-c3cnc(N(C)C4CC(C)(C)NC(C)(C)C4)nn3)c(O)c2)cnn1` [Cpd 61, 5-(6-methylpyridazin-4-yl)-2-{3-[methyl(2,2,6,6-tetramethylpiperidin-4-yl)amino]-1,2,4-triazin-6-yl}phenol] displayed a concentration for half-maximal inhibition (IC50) of at most 100 nM.
The figure for `CN1CCC12CCN(c1ncc(-c3ccc(-c4cn[nH]c4)cc3O)nn1)CC2` [Cpd 113, 2-[3-(1-methyl-1,7-diazaspiro[3.5]nonan-7-yl)-1,2,4-triazin-6-yl]-5-(1H-pyrazol-4-yl)phenol] is 100 to 500 nM; for `CCC(C)(CC)NC1CCN(c2ncc(-c3ccc(-c4cn[nH]c4)cc3O)nn2)C1` (stereo not shown) [Cpd 170, 2-(3-{3-[(3-methylpentan-3-yl)amino]pyrrolidin-1-yl}-1,2,4-triazin-6-yl)-5-(1H-pyrazol-4-yl)phenol] it is at most 100 nM.
